From publication PMC5234776, “Study of the Antimicrobial Activity of Tilapia Piscidin 3 (TP3) and TP4 and Their Effects on Immune Functions in Hybrid Tilapia (Oreochromis spp.)” (PLoS ONE, 2017)
Values after ≈ are worked out from the molar mass of the structure shown. Peptide text beside a SMILES is read from it.

Columns and labels:
[1] = test system: V. vulnificus; experiment: Tilapia survival, peptide injected before V. vulnificus infection (pre-treatment); format: in vivo, tilapia (Oreochromis spp.); settings: 7 days
Source text: (§1) We obtained tilapia (Oreochromis spp.) from a commercial aquaculture company. The fish body lengths were 4.0±0.6 cm, and body weights were 3.1±0.3 g. The tilapia were maintained in a 2000 liter indoor aquarium at the Marine Research Station, Ilan, Taiwan. To study the efficacy with which TP3 and TP4 protect tilapia against V. vulnificus, we injected the bacteria into the abdominal cavities (peritoneum) of the tilapia using a syringe (29 Gx1/2, Terumo Medical, Elkton, MD, USA); control tilapia were injected with PBS-buffered saline. For the first trial in each group, we used 15 tilapia: (a) group 1 was injected with V. vulnificus (2×10^5 CFU/fish) only; (b) group 2 was injected with PBS only; and (c) group 3 was injected with bacterial cells (2×10^5 CFU/fish) combined with a mixture containing both TP3 and TP4 peptides (at 0.1, 1, 10, or 20 μg/fish) that had been incubated for 60 minutes at 28°C. Next, at 168 hours after the first injection, the tilapia that survived the first co-treatment were again injected with V. vulnificus (2×10^5 CFU/fish). For this second challenge, we chose tilapia with similar body weights and ages that had not been previously treated with V. vulnificus, TP3 or TP4 for the V. vulnificus-only group (control group), and we recorded the survival rate over seven days. For the third trial, each group contained 15 tilapia, each of which was injected with 20, 30, or 40 μg of TP3 or TP4 followed by V. vulnificus (2×10^5 CFU/fish) after 0.5, 1, or 2 hours. The survival rate was recorded after seven days. For the fourth trial, each group contained 15 tilapia, each of which was first injected with V. vulnificus (2×10^5 CFU/fish) and then with 20, 30, or 40 μg of TP3 or TP4 after 0.5, 1, or 2 hours; the survival rate was recorded over seven days. Each experimental group consisted of 15 fish per treatment and three replicates (triplicate groups of 15 fish per treatment). We performed multiple group comparisons by analysis of variance (ANOVA) using SPSS software, and pairwise comparisons of groups were performed using a t-test. Significant differences were indicated as *P<0.05 and **P<0.01.

[2] = test system: V. vulnificus; experiment: Tilapia survival, co-treatment with V. vulnificus and peptide; format: in vivo, tilapia (Oreochromis spp.); settings: abdominal cavity, seven days
Source text: as §1

[3] = test system: V. vulnificus; experiment: Time-kill analysis; format: cell-based, Vibrio vulnificus; settings: for eradication of bacteria: 60 minutes of exposure at 2×MIC, in words; for time after which V. vulnificus CFUs recovered: peptide at 1xMIC
Procedure: We determined the MICs of TP3, TP4, kanamycin, and ampicillin against V. vulnificus using a broth microdilution method in accordance with NCCLS guidelines. To measure the killing efficiencies of TP3 and TP4 against V. vulnificus, we prepared TP3 or TP4 solutions at MIC concentrations of 0.5×, 1×, and 2× and these solutions with equal volumes of V. vulnificus (1×10^6 CFU/ml) to each well of a 96-well plate. The plates were incubated at 28°C for 0, 60, 120, 180, 360, 540, 720, or 1440 minutes, and after the incubation period, 50 μL of each bacterial solution were plated on a TCBS plate to obtain viable cell counts. Broth grown in the absence of peptides was used as a negative control. The results were determined using triplicate independent experiments.

[4] = test system: V. vulnificus; experiment: microbe, parasite or virus in culture; format: cell-based, Vibrio vulnificus; settings: for antimicrobial activity in the pH 2 solution: pH 2, in words
Procedure: To understand the effects of pH on TP3 or TP4, the reagents were dissolved in ddH2O, 1 M HCl or 1 M NaOH to obtain solutions with different pH values. For the temperature-dependent functional study, the TP3 or TP4 was added to a solution in a water bath (Basic life, model BL3002, Taiwan) and incubated for 60 minutes at different temperatures (40, 60, 80, or 100°C). To evaluate the effects of TP3 and TP4 on pepsin and trypsin function, each peptide was incubated for 10 or 30 minutes with different concentrations of pepsin or trypsin (0.1, 1, or 10 μg/ml), and we determined the MIC values after incubating these solutions with cells at 28°C for 720 minutes, according to a previously described MIC experimental protocol.

[5] = test system: V. vulnificus; experiment: Tilapia survival, peptide injected after V. vulnificus infection (post-treatment); format: in vivo, tilapia (Oreochromis spp.); settings: seven days
Source text: as §1

[6] = test system: V. vulnificus; experiment: Tilapia survival, re-challenge of co-treatment survivors with V. vulnificus; format: in vivo, tilapia (Oreochromis spp.); settings: survivors of 20 μg/fish co-treatment, followed seven days
Source text: as §1
The antimicrobial activities of TP3 and TP4 peptides were analyzed in tilapia infected with lethal amounts of bacteria. Different amounts of V. vulnificus were injected into the abdominal cavities of the fish, and survival rates were recorded as cumulative percentages (S1 Fig). To determine whether TP3 and TP4 had any toxic effects on the tilapia, we injected different doses of TP3 and TP4 (0.1, 1, 10, 20, 30, 40, or 50 μg/fish) into the abdominal cavity and recorded the cumulative survival percentage of the fish (S2 Fig). We also co-treated tilapia with different doses (0.1, 1, 10, 20 μg/fish) of TP3 or TP4 combined with 2x10^4 CFU of V. vulnificus to evaluate tilapia survival following treatment. […] After 14, 21, or 28 days following the first co-treatment with TP3, the tilapia that survived in the 20 μg/fish TP3 experimental group were injected with a second dose of 2x10^4 CFU of V. vulnificus, and the survival rates were measured for another seven days. […] In the co-treatment experiments, at 14, 21, or 28 days after the first co-treatment with TP4, the surviving tilapia in the 20 μg/fish TP4 experimental group received a second injection of 2x10^4 CFU of V. vulnificus, and the survival rates were measured for another seven days.

[7] = peptide 20 μg/fish 0.5 hours before V. vulnificus
[8] = peptide 20 μg/fish 1 hour before V. vulnificus
[9] = peptide 20 μg/fish 2 hours before V. vulnificus
[10] = peptide 30 μg/fish 0.5 hours before V. vulnificus
[11] = peptide 30 μg/fish 1 hour before V. vulnificus
[12] = peptide 30 μg/fish 2 hours before V. vulnificus
[13] = peptide 40 μg/fish 0.5 hours before V. vulnificus
[14] = peptide 40 μg/fish 1 hour before V. vulnificus
[15] = peptide 40 μg/fish 2 hours before V. vulnificus
[16] = co-injection of V. vulnificus and peptide 0.1 μg/fish
[17] = co-injection of V. vulnificus and peptide 1 μg/fish
[18] = co-injection of V. vulnificus and peptide 10 μg/fish
[19] = co-injection of V. vulnificus and peptide 20 μg/fish
[20] = peptide 20 μg/fish 0.5 hours after V. vulnificus
[21] = peptide 20 μg/fish 1 hour after V. vulnificus
[22] = peptide 20 μg/fish 2 hours after V. vulnificus
[23] = peptide 30 μg/fish 0.5 hours after V. vulnificus
[24] = peptide 30 μg/fish 1 hour after V. vulnificus
[25] = peptide 30 μg/fish 2 hours after V. vulnificus
[26] = peptide 40 μg/fish 0.5 hours after V. vulnificus
[27] = peptide 40 μg/fish 1 hour after V. vulnificus
[28] = peptide 40 μg/fish 2 hours after V. vulnificus

Compound: CC[C@H](C)[C@H](NC(=O)[C@H](CC(C)C)NC(=O)[C@H](CO)NC(=O)[C@H](Cc1c[nH]cn1)NC(=O)[C@@H](NC(=O)[C@H](Cc1c[nH]cn1)NC(=O)[C@H](CCCCN)NC(=O)CNC(=O)[C@@H](NC(=O)[C@H](CO)NC(=O)[C@H](Cc1ccccc1)NC(=O)[C@H](CC(C)C)NC(=O)CNC(=O)CNC(=O)[C@@H](NC(=O)[C@@H](NC(=O)[C@H](Cc1c[nH]cn1)NC(=O)[C@H](Cc1c[nH]cn1)NC(=O)[C@@H](NC(=O)[C@@H](N)Cc1ccccc1)[C@@H](C)CC)[C@@H](C)CC)[C@@H](C)CC)C(C)C)[C@@H](C)CC)C(=O)N[C@@H](Cc1c[nH]cn1)C(=O)NCC(=O)N[C@@H](Cc1c[nH]cn1)C(=O)O [TP3, tilapia piscidin 3] (H-FIHHIIGGLFSVGKHIHSLIHGH-OH)
- survival rate [1, 7]: 13.3%
- survival rate [1, 8]: 2.2%
- survival rate [1, 9]: 2.2%
- survival rate [1, 10]: 28.9%
- survival rate [1, 11]: 11.8%
- survival rate [1, 12]: 8.9%
- survival rate [1, 13]: 26.7%
- survival rate [1, 14]: 8.9%
- survival rate [1, 15]: 4.4%
- survival rate [2, 16]: 0%
- survival rate [2, 17]: 0%
- survival rate [2, 18]: 73.3%
- survival rate [2, 19]: 95.3%
- eradication of bacteria [3]: completely eradicated
- time after which V. vulnificus CFUs recovered [3]: approximately 6 hours
- antimicrobial activity in the pH 2 solution [4]: Neither the antibiotics nor TP3 and TP4 showed any antimicrobial activity
- MBC ([4]; pH 7): 62.5 µg/mL (≈ 24.4 µM)
- survival rate [5, 20]: 33.3%
- survival rate [5, 21]: 20%
- survival rate [5, 22]: 0%
- survival rate [5, 23]: 33.3%
- survival rate [5, 24]: 15.5%
- survival rate [5, 25]: 4.5%
- survival rate [5, 26]: 24.4%
- survival rate [5, 27]: 8.9%
- survival rate [5, 28]: 0%
- survival rate after second injection of V. vulnificus ([6]; re-challenged after 14 days): 17.8%
- survival rate after second injection of V. vulnificus ([6]; re-challenged after 21 days): 26.7%
- survival rate after second injection of V. vulnificus ([6]; re-challenged after 28 days): 35.6%

Compound: CC[C@H](C)[C@H](NC(=O)[C@H](C)NC(=O)[C@H](CCCCN)NC(=O)CNC(=O)[C@H](C)NC(=O)[C@H](CO)NC(=O)[C@H](Cc1ccccc1)NC(=O)[C@H](CC(C)C)NC(=O)CNC(=O)CNC(=O)[C@@H](NC(=O)[C@@H](NC(=O)[C@H](Cc1c[nH]cn1)NC(=O)[C@H](Cc1c[nH]cn1)NC(=O)[C@@H](NC(=O)[C@@H](N)Cc1ccccc1)[C@@H](C)CC)[C@@H](C)CC)[C@@H](C)CC)C(=O)N[C@@H](Cc1c[nH]cn1)C(=O)N[C@@H](CCCNC(=N)N)C(=O)N[C@@H](CC(C)C)C(=O)N[C@H](C(=O)N[C@@H](CCCNC(=N)N)C(=O)N[C@@H](CCCNC(=N)N)C(=O)N[C@@H](CCCNC(=N)N)C(=O)N[C@@H](CCCNC(=N)N)C(=O)N[C@@H](CCCNC(=N)N)C(=O)O)[C@@H](C)CC [TP4, tilapia piscidin 4] (H-FIHHIIGGLFSAGKAIHRLIRRRRR-OH)
- survival rate [1, 7]: 37.8%
- survival rate [1, 8]: 4.4%
- survival rate [1, 9]: 0%
- survival rate [1, 10]: 31.1%
- survival rate [1, 11]: 20%
- survival rate [1, 12]: 2.2%
- survival rate [1, 13]: 11.1%
- survival rate [1, 14]: 4.4%
- survival rate [1, 15]: 4.4%
- survival rate [2, 16]: 73.3%
- survival rate [2, 17]: 75%
- survival rate [2, 18]: 86%
- survival rate [2, 19]: 88.9%
- eradication of bacteria [3]: completely eradicated
- time after which V. vulnificus CFUs recovered [3]: ~9 h
- antimicrobial activity in the pH 2 solution [4]: Neither the antibiotics nor TP3 and TP4 showed any antimicrobial activity
- MBC ([4]; pH 7): 7.8 µg/mL (≈ 2.62 µM)
- MIC ([4]; pH 7): 7.8 µg/mL (≈ 2.62 µM)
- survival rate [5, 20]: 48.9%
- survival rate [5, 21]: 22.2%
- survival rate [5, 22]: 4%
- survival rate [5, 23]: 40%
- survival rate [5, 24]: 20%
- survival rate [5, 25]: 0%
- survival rate [5, 26]: 2.2%
- survival rate [5, 27]: 4.4%
- survival rate [5, 28]: 6.7%
- survival rate after second injection of V. vulnificus ([6]; re-challenged after 14 days): 17.8%
- survival rate after second injection of V. vulnificus ([6]; re-challenged after 21 days): 37.8%
- survival rate after second injection of V. vulnificus ([6]; re-challenged after 28 days): 42.2%
